What was measured:
Type in all cases: cell-based
HepG2 cells = assay: Cell viability assay (HepG2 Survival assay, CellTiter-Glo); conditions: 24 hr, cellular ATP levels
Description: (§1) HepG2 cells (ATCC, Cat.: HB-8065) were maintained in Growth medium-Eagle's Minimum Essential Medium (Corning, 10-010-CVR), 10% FBS (Gibco, 10099-141), Penicillin (100 units/mL), Streptomycin ([…]). HepG2 cells were incubated at 37° C., 5% CO2. HepG2 cells were plated in black clear bottom 96-well plates (Corning, 3063) at 40,000 cells/well in 100 μL of growth media. After an overnight incubation, the culture media were changed to serum-free OptiMEM media (Gibco, 31985-062), 90 μL/well. Vehicle, PF-06446846 hydrochloride, berberine, or test compound was added to the culture media, 10 μL/well. After 24 hr cellular ATP levels were measured using CellTiter-Glo® 2.0 Assay (Promega, G9242).

PCSK9 = PCSK9 ELISA on HepG2 culture medium; conditions: HepG2 cells, 24 hr
Description: as §1, with “flat” for “black clear”, “3599)” for “3063)”, “medium was harvested, and 10 μL of the medium” for “cellular ATP levels”, “used for the PCSK9 ELISA (R&D Systems, SPC900).” for “measured using CellTiter-Glo® 2.0 Assay (Promega, G9242).”

PCSK9 mRNA = assay: RT-Q-PCR analysis of PCSK9 mRNA in HepG2 cells; conditions: Homo sapiens, 24 h, normalized to GAPDH, read-out: HepG2 Q-PCR PCSK9 mRNA level decrease (10 μM)
Description: HepG2 cells (ATCC, Cat.: HB-8065) were maintained in Growth medium-Eagle's Minimum Essential Medium (Corning, 10-010-CVR), 10% FBS (Gibco, 10099-141), Penicillin (100 units/mL), Streptomycin ([…]). HepG2 cells were incubated at 37° C., 5% CO2.
Cells were cultured in growth medium as described above and treated with the vehicle, Berberine or test compound for 24 h. The RNA was extracted using the Total RNA mini Kit (Tiangen, Beijing, China) according to the manufacturer's instructions. Reverse transcription was carried out using the High-Capacity cDNA reverse transcription kit (Thermo Fisher Scientific). Quantitative real-time PCR was performed using a reaction mixture containing cDNA, specific primers [PCSK9, 5′-[…]-3′ (forward) and 5′-[…]-3′ (reverse); GAPDH, 5′-[…]-3′ (forward) and 5′-[…]-3′ (reverse)] and Maxima SYBR Green/ROX qPCR Master Mix (Thermo Fisher Scientific). PCR amplification was carried out in a Real-Time PCR System. The real-time PCR conditions were 37° C. 10 min; 95° C. 10 min; 95° C. 15 s, 60° C. 30 s, 72° C. 30 s, 40 cycle. The amount of % RNA was normalized to the GAPDH level in the same samples.

SMILES | HepG2 Survival assay (10 μM) (HepG2 cells) | HepG2 PCSK9 ELISA (10 μM) % inhibition (PCSK9) | inhibition at 10 µM (PCSK9 mRNA)
CC(C)c1ccc(Oc2ccc(NC(=O)CN(CC(=O)Nc3ccccc3)C(=O)c3ccc(C(F)(F)F)o3)cc2)cc1 [Compound 201-261] | 99% | 60% | –
O=C(CN(CC(=O)Nc1ccc(Oc2ccc(C(F)(F)F)cc2)cc1)C(=O)c1cc2cccc(F)c2[nH]1)Nc1ccccc1 [Compound 201-255] | 101% | 87% | 72%
O=C(CN(CC(=O)Nc1ccc(Oc2ccc(F)cc2)cc1)C(=O)c1cc2cccc(F)c2[nH]1)NCc1ccccc1F [Compound 201-45] | 100% | 60% | 80%
CN(Cc1ccccc1)C(=O)CN(CC(=O)Nc1ccc(Oc2ccc(F)cc2)cc1)C(=O)c1cc2cc(F)ccc2[nH]1 [Compound 201-53] | 100% | 50% | 80%
O=C(CN(CC(=O)Nc1ccc(Oc2ccc(C(F)(F)F)cc2)cc1)C(=O)c1ccc(C(F)(F)F)o1)NCc1ccccc1 [Compound 201-209] | 92% | 91% | –
O=C(CN(CC(=O)Nc1ccc(Oc2ccccc2)cc1)C(=O)c1cc2ccccc2[nH]1)NCc1ccccc1F [Compound 201-43] | 100% | 60% | 77%
CN(Cc1ccccc1F)C(=O)CN(CC(=O)Nc1ccc(Oc2ccc(F)cc2)cc1)C(=O)c1cc2cccc(F)c2[nH]1 [Compound 201-69] | 92% | 80% | 78%
O=C(CN(CC(=O)Nc1ccc(Oc2ccccc2)cc1)C(=O)c1cc2cccc(F)c2[nH]1)Nc1ccccc1 [Compound 201-258] | 97% | 69% | –
O=C(CN(CC(=O)NC1Cc2ccccc2C1)C(=O)c1cc2cccc(F)c2[nH]1)Nc1ccc(Oc2ccccc2)cc1 [Compound 201-15] | 100% | 46% | 95.2%
CN(Cc1ccccc1)C(=O)CN(CC(=O)Nc1ccc(Oc2ccc(F)cc2)cc1)C(=O)c1cc2c(F)cccc2[nH]1 [Compound 201-49] | 100% | 50% | 77%
CN(Cc1ccccc1F)C(=O)CN(CC(=O)Nc1ccc(Oc2ccc(F)cc2)cc1)C(=O)c1ccc(C(F)(F)F)o1 [Compound 201-103] | 100% | 86% | 85%
O=C(CN(CC(=O)Nc1ccc(Oc2ccc(F)c(F)c2)cc1)C(=O)c1cc2cccc(F)c2[nH]1)Nc1ccccc1 [Compound 201-274] | 98% | 77% | 88%
CN(Cc1ccccc1F)C(=O)CN(CC(=O)Nc1ccc(Oc2ccccc2)cc1)C(=O)c1cc2ccccc2o1 [Compound 201-91] | 100% | 40% | 58%
O=C(CN(CC(=O)NC1Cc2ccccc2C1)C(=O)c1cc2cccc(F)c2[nH]1)Nc1ccc(Oc2ccc(F)cc2)cc1 [Compound 201-13] | 97% | 64% | 93.3%
CN(C(=O)CN(CC(=O)NC1Cc2ccccc2C1)C(=O)c1cc2cccc(F)c2[nH]1)c1ccc(Oc2ccc(F)cc2)cc1 [Compound 201-14] | 93% | 41% | 89.5%
O=C(CN(CC(=O)Nc1ccc(Oc2ccccc2)cc1)C(=O)c1cc2cccc(F)c2[nH]1)NCc1ccccc1F [Compound 201-47] | 99% | 70% | 90%

SMILES | HepG2 Survival assay (10 μM) (HepG2 cells) | HepG2 PCSK9 ELISA (10 μM) % inhibition (PCSK9) | inhibition at 10 µM (PCSK9 mRNA)
O=C(CN(CC(=O)Nc1ccc(Oc2ccc(F)cc2)cc1)C(=O)c1cc2cc(F)ccc2[nH]1)NCc1ccccc1F [Compound 201-37] | 100% | 50% | 63%
CN(Cc1ccccc1)C(=O)CN(CC(=O)N(C)c1ccc(Oc2ccc(F)cc2)cc1)C(=O)c1cc2cc(F)ccc2[nH]1 [Compound 201-54] | 100% | 52% | 61%
CN(Cc1ccccc1F)C(=O)CN(CC(=O)Nc1ccc(Oc2ccc(F)c(F)c2)cc1)C(=O)c1ccco1 [Compound 201-133] | 100% | 98% | 92%
CN(Cc1ccccc1)C(=O)CN(CC(=O)Nc1ccc(Oc2ccccc2)cc1)C(=O)c1cc2c(F)cccc2[nH]1 [Compound 201-51] | 93% | 55% | 75%
O=C(CN(CC(=O)Nc1ccc(Oc2ccc(C(F)(F)F)cc2)cc1)C(=O)c1ccc(C(F)(F)F)[nH]1)Nc1ccccc1 [Compound 201-263] | 88% | 84% | –
CC(C)c1ccc(Oc2ccc(NC(=O)CN(CC(=O)NCc3ccccc3)C(=O)c3ccc(C(F)(F)F)[nH]3)cc2)cc1 [Compound 201-249] | 97% | 85% | –
N#Cc1cccc2cc(C(=O)N(CC(=O)Nc3ccc(Oc4ccc(C(F)(F)F)cc4)cc3)CC(=O)NC3CCCC3)[nH]c12 [Compound 201-237] | 98% | 72% | 77%
CN(Cc1ccccc1F)C(=O)CN(CC(=O)Nc1ccc(Oc2ccccc2)cc1)C(=O)c1ccco1 [Compound 201-127] | 90% | 74% | 92%
O=C(CN(CC(=O)Nc1ccc(Oc2ccc(F)cc2)cc1)C(=O)c1cc2ccccc2[nH]1)NCc1ccccc1F [Compound 201-41] | 100% | 72% | 75%
CN(Cc1ccccc1F)C(=O)CN(CC(=O)Nc1ccc(Oc2ccc(F)cc2)cc1)C(=O)c1cc2ccccc2o1 [Compound 201-85] | 100% | 46% | 70%
CC(C)c1ccc(Oc2ccc(NC(=O)CN(CC(=O)NC3CCCC3)C(=O)c3ccc(C(F)(F)F)[nH]3)cc2)cc1 [Compound 201-235] | 101% | 73% | 72%
CN(Cc1ccccc1F)C(=O)CN(CC(=O)Nc1ccc(Oc2ccc(F)c(F)c2)cc1)C(=O)c1cc2ccccc2o1 [Compound 201-97] | 100% | 48% | 37%
CN(Cc1ccccc1)C(=O)CN(CC(=O)N(C)c1ccc(Oc2ccc(F)cc2)cc1)C(=O)c1cc2c(F)cccc2[nH]1 [Compound 201-50] | 100% | 47% | 77%
CN(Cc1ccccc1)C(=O)CN(CC(=O)N(C)c1ccc(Oc2ccccc2)cc1)C(=O)c1cc2c(F)cccc2[nH]1 [Compound 201-52] | 100% | 45% | 79%
CN(C(=O)CN(CC(=O)NCc1ccccc1F)C(=O)c1cc2cccc(F)c2[nH]1)c1ccc(Oc2ccc(F)cc2)cc1 [Compound 201-46] | 100% | 33% | 46%
O=C(CN(CC(=O)NC1Cc2ccccc2C1)C(=O)c1cc2ccccc2[nH]1)Nc1ccc(Oc2ccccc2)cc1 [Compound 201-11] | 100% | 38% | 79.3%

Source: patent US20230122967A1, “NOVEL COMPOUNDS AS INHIBITORS OF PCSK9” (SHENGKE PHARMACEUTICALS (JIANGSU) LTD., priority 2020, published 2023)
